Test results taken from the NIST ThermoML archive (doi:10.1016/j.jct.2014.02.008).

Assay: cn = amount concentration of the nth substance listed, in mol/dm3
Settings: 298.15 K, 101 kPa, Liquid, Taylor dispersion method

NCCCC[C@H](N)C(=O)O [L-lysine] + O
Settings | binary diffusion coefficient [m2/s]
c1 = 0.001 | 6.66e-10
c1 = 0.005 | 6.62e-10
c1 = 0.01 | 6.61e-10
c1 = 0.02 | 6.59e-10
c1 = 0.03 | 6.52e-10
c1 = 0.05 | 6.46e-10
c1 = 0.1 | 6.26e-10
